Measurements from publication PMC10745882, “Investigation of Drug-Interaction Potential for Arthritis Dietary Supplements: Chondroitin Sulfate, Glucosamine, and Methylsulfonylmethane” (Molecules, 2023).

Columns and labels:
[1] = target: T1, CYP2A6 (Homo sapiens, UniProt P11509); assay: CYP inhibition assay in human liver microsomes (LC-MS/MS cocktail), coumarin to 7-OH-coumarin; type: in vitro ADME
T1 construct: Pooled human liver microsomes were purchased from BD Gentest; tissue BD Gentest; host or cells: pooled human liver microsomes
T1 sequence (P11509 1-494): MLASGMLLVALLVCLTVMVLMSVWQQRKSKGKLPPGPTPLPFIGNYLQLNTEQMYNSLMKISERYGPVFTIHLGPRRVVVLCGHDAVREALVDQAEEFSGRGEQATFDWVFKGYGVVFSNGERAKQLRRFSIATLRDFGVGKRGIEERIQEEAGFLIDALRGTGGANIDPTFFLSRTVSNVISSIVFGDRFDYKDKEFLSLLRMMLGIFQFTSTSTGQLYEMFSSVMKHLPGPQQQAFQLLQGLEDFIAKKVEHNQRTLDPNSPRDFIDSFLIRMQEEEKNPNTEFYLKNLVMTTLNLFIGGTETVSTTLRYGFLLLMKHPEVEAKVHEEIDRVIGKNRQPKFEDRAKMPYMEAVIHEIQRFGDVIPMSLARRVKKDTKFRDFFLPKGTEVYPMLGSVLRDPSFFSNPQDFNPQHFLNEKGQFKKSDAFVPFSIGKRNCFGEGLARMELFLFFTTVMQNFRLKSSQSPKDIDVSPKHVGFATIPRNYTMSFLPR
Description: (§1) For the experimental method, the reference method was used. Briefly, incubation mixtures were composed of 0.5 mg/mL human liver microsomes; varying concentrations of CS in DW (0.1, 0.3, 1, 3, 10, 30, 100, and 200 µM) or MSM in DW (0.1, 0.3, 1, 3, 10, 30, 100, 300, and 1000 µM) or GCS in DMSO (0.1, 0.3, 1, 3, 10, 30, 100, 300, and 1000 µM); a substrate mixture in DMSO (40 µM phenacetin for CYP1A2; 2.5 µM coumarin for CYP2A6; 80 µM bupropion for CYP2B6; 10 µM diclofenac for CYP2C9; 80 µM [±]-mephenytoin for CYP2C19; 5 µM dextromethorphan for CYP2D6; 2.5 µM midazolam and 30 µM testosterone for CYP3A4); and an NADPH generating system (NGS; 0.1 M glucose-6-phosphate, 10 mg/mL β-NADP^+, and 1 U/mL glucose-6-phosphate dehydrogenase) in a total volume of 200 µL potassium phosphate buffer (0.1 M, pH 7.4). The reaction mixture, excluding NGS, underwent pre-incubation at 37 °C for 5 min, followed by further incubation with NGS for 30 min in a water bath. Well-established selective CYP inhibitors were employed as positive controls (40 µM ketoconazole for CYP3A4, 50 µM furafyllin for CYP1A2, 10 µM quinidine for CYP2D6, 125 µM ticlopidine for CYP2C19 and CYP2B6, 10 µM 8-methoxsalen for CYP2A6, and 10 µM sulfaphenazole for CYP2C9). Post incubation, the reaction was halted by adding 50 µL ice-cold 1% formic acid acetonitrile. After centrifugation at 13,200 rpm for 5 min, the supernatant was collected from the sample and subjected to analysis via an LC-MS/MS system. All experiments were performed in triplicate.
(§2) For the experimental method, the reference method was used. The LC-MS/MS system utilized in this study consisted of an Agilent 1260 binary pump HPLC system coupled with the Agilent 6460 Triple Quadrupole mass spectrometer (Agilent Technologies, Santa Clara, CA, USA), featuring an electrospray ionization source. Chromatographic separation was achieved using a Fortis C8 column (2.1 × 100 mm, 5.0 µm; Fortis Technologies Ltd., Neston, UK). The HPLC mobile phases comprised (A) 0.1% formic acid and (B) 0.1% formic acid in 90% acetonitrile. A gradient elution method was employed with an initial solvent B concentration of 15% and a flow rate of 0.25 mL/min. […] The total run time was 11.0 min, and the injection volume was 5 µL. Mass detection was conducted in the positive ion mode using multiple reaction monitoring (MRM). Specific MRM transitions for each analyte are detailed in Table S4.

[2] = target: T2, CYP2C19 (Homo sapiens, UniProt P33261); assay: CYP inhibition assay in human liver microsomes (LC-MS/MS cocktail), mephenytoin to 4-OH-mephenytoin; type: in vitro ADME
T2 construct: Pooled human liver microsomes were purchased from BD Gentest; tissue BD Gentest; host or cells: pooled human liver microsomes
T2 sequence (P33261 whole entry): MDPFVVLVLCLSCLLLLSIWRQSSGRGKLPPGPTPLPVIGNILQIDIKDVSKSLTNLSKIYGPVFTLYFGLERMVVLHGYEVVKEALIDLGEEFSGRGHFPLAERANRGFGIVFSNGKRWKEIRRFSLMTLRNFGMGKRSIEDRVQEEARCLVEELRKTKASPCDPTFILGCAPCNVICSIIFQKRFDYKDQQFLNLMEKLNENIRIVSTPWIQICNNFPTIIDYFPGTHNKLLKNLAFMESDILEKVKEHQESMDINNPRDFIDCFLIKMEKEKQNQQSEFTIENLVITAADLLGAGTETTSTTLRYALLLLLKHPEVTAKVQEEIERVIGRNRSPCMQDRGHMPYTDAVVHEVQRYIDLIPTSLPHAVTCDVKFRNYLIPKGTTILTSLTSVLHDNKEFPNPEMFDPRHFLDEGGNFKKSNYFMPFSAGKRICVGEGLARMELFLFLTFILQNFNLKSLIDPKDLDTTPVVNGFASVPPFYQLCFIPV
Description: as §1, §2

[3] = target: T3, CYP3A4(M) (Homo sapiens, UniProt P08684); assay: CYP inhibition assay in human liver microsomes (LC-MS/MS cocktail), midazolam to 1-OH-midazolam; type: in vitro ADME
T3 construct: Pooled human liver microsomes were purchased from BD Gentest; tissue BD Gentest; host or cells: pooled human liver microsomes
T3 sequence (P08684 whole entry): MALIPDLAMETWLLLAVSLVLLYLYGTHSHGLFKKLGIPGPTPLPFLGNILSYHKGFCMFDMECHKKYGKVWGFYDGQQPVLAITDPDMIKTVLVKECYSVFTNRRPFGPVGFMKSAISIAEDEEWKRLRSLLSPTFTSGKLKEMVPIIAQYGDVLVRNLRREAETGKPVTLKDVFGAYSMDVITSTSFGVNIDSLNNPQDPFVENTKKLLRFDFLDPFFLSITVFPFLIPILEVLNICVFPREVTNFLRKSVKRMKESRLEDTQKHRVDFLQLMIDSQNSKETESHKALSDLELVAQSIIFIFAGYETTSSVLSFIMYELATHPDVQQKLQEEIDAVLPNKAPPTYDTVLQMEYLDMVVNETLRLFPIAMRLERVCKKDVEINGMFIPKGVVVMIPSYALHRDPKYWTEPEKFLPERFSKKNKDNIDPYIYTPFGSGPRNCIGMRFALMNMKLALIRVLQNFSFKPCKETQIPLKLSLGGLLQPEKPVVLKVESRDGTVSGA
Description: For the experimental method, the reference method was used. […] The reaction mixture, excluding NGS, underwent pre-incubation at 37 °C for 5 min, followed by further incubation with NGS for 30 min in a water bath. […] Post incubation, the reaction was halted by adding 50 µL ice-cold 1% formic acid acetonitrile. After centrifugation at 13,200 rpm for 5 min, the supernatant was collected from the sample and subjected to analysis via an LC-MS/MS system. All experiments were performed in triplicate.
For the experimental method, the reference method was used. […] The HPLC mobile phases comprised (A) 0.1% formic acid and (B) 0.1% formic acid in 90% acetonitrile. […] The total run time was 11.0 min, and the injection volume was 5 µL. Mass detection was conducted in the positive ion mode using multiple reaction monitoring (MRM). Specific MRM transitions for each analyte are detailed in Table S4.

[4] = target: T4, CYP3A4(T) (Homo sapiens, UniProt P08684); assay: CYP inhibition assay in human liver microsomes (LC-MS/MS cocktail), testosterone to 6-β-OH-Testosterone; type: in vitro ADME
T4 construct: Pooled human liver microsomes were purchased from BD Gentest; tissue BD Gentest; host or cells: pooled human liver microsomes
T4 sequence (P08684 whole entry): as above
Description: as §1, §2

[5] = test system: CYP2E1; parameters: method as in PMID 20408500; details: related report; cited from earlier work

N[C@H]1C(O)O[C@H](CO)[C@@H](O)[C@@H]1O (stereo partly drawn) [GCS, glucosamine]
Remaining Activities (% of Control, n = 3) ([1]; test substance 0.3 μM): 107.6 ± 5.2 % of Control
Remaining Activities (% of Control, n = 3) ([1]; test substance 1 μM): 105.3 ± 0.4 % of Control
Remaining Activities (% of Control, n = 3) ([1]; test substance 3 μM): 106.2 ± 2.3 % of Control
Remaining Activities (% of Control, n = 3) ([1]; test substance 10 μM): 101.5 ± 1.4 % of Control
Remaining Activities (% of Control, n = 3) ([1]; test substance 30 μM): 102.1 ± 2.5 % of Control
Remaining Activities (% of Control, n = 3) ([1]; test substance 100 μM): 103.4 ± 2.7 % of Control
Remaining Activities (% of Control, n = 3) ([1]; test substance 300 μM): 97.9 ± 0.4 % of Control
Remaining Activities (% of Control, n = 3) ([1]; test substance 1000 μM): 94.1 ± 7.3 % of Control
Remaining Activities (% of Control, n = 3) ([2]; test substance 0.3 μM): 128.4 ± 27.9 % of Control
Remaining Activities (% of Control, n = 3) ([2]; test substance 1 μM): 102.5 ± 3.0 % of Control
Remaining Activities (% of Control, n = 3) ([2]; test substance 3 μM): 102.6 ± 8.8 % of Control
Remaining Activities (% of Control, n = 3) ([2]; test substance 10 μM): 101.9 ± 4.3 % of Control
Remaining Activities (% of Control, n = 3) ([2]; test substance 30 μM): 90.5 ± 8.7 % of Control
Remaining Activities (% of Control, n = 3) ([2]; test substance 100 μM): 100.3 ± 3.7 % of Control
Remaining Activities (% of Control, n = 3) ([2]; test substance 300 μM): 95.5 ± 5.6 % of Control
Remaining Activities (% of Control, n = 3) ([2]; test substance 1000 μM): 88.7 ± 7.3 % of Control
Remaining Activities (% of Control, n = 3) ([3]; test substance 0.3 μM): 104.4 ± 13.5 % of Control
Remaining Activities (% of Control, n = 3) ([3]; test substance 1 μM): 103.5 ± 3.2 % of Control
Remaining Activities (% of Control, n = 3) ([3]; test substance 3 μM): 98.3 ± 1.9 % of Control
Remaining Activities (% of Control, n = 3) ([3]; test substance 10 μM): 97.2 ± 1.5 % of Control
Remaining Activities (% of Control, n = 3) ([3]; test substance 30 μM): 96.9 ± 6.1 % of Control
Remaining Activities (% of Control, n = 3) ([3]; test substance 100 μM): 95.2 ± 8.2 % of Control
Remaining Activities (% of Control, n = 3) ([3]; test substance 300 μM): 91.0 ± 3.3 % of Control
Remaining Activities (% of Control, n = 3) ([3]; test substance 1000 μM): 88.7 ± 12.1 % of Control
Remaining Activities (% of Control, n = 3) ([4]; test substance 0.3 μM): 92.8 ± 0.6 % of Control
Remaining Activities (% of Control, n = 3) ([4]; test substance 1 μM): 92.4 ± 0.9 % of Control
Remaining Activities (% of Control, n = 3) ([4]; test substance 3 μM): 91.1 ± 3.1 % of Control
Remaining Activities (% of Control, n = 3) ([4]; test substance 10 μM): 91.7 ± 4.4 % of Control
Remaining Activities (% of Control, n = 3) ([4]; test substance 30 μM): 91.8 ± 3.0 % of Control
Remaining Activities (% of Control, n = 3) ([4]; test substance 100 μM): 84.8 ± 7.8 % of Control
Remaining Activities (% of Control, n = 3) ([4]; test substance 300 μM): 82.1 ± 3.4 % of Control
Remaining Activities (% of Control, n = 3) ([4]; test substance 1000 μM): 80.0 ± 6.6 % of Control
inhibitory effect on CYP2E1 [5]: no inhibitory effect
